# System: MHC class I molecules of T1 cells (human lymphoma cell line 174×CEM.)
# Test: Effect on expression of MHC class I from T1 cells (flow cytometry, MFI)
# Assay type: cell-based
# Settings: 3 days culture
# Method: Effect on Expression of MHC Class I from T1 Cells (Human Lymphoma Cell Line 174×CEM.)
# Using a 96-well flat bottom microplate, T1 cells (5.7×10^3 cells/200 μl/well) were cultured in an RPMI 1640 medium (Iwaki Glass) containing 10% fetal bovine serum (hereinafter abbreviated as FBS; Iruvine Scientific) in an incubator containing 5% carbon dioxide at 37° C. for 3 days, in the presence of a test compound having each concentration obtained by dilution at a common ratio route of 10 from 400 μM. After completion of the culture, the cells were stained with fluoroisothiocyanate-labeled mouse anti-human MHC class I monoclonal antibody (an antibody produced from the cell line W6/32 (ATCC No. CRL 1991)). The mean fluorescence intensity of the stained cells (hereinafter referred to as MFI) was measured using flow cytometry FACScan (BD). The obtained value was defined as an expression level of MHC class I molecules. A test compound concentration necessary for suppressing 20% of the expression level of MHC class I molecules (EC20 value) was calculated using the following formula (1).
# [formula] • Eexp: MFI of cultured cells containing test compound after being stained with antibody • Cexp: MFI of cultured cells containing no test compounds after being stained with antibody
row,SMILES,EC20 (concentration necessary for suppressing 20% of the expression level of MHC class I molecules) [nM]
1,CC(C)NC(=O)Nc1nc2nccc(-c3cccc(OCc4ccncc4)c3)n2n1 [Example 193],310
2,CC(C)NC(=O)Nc1nc2nccc(-c3cccc(OCCCc4ccccc4)c3)n2n1 [Example 194],420
3,COc1cccc([C@H](C)NC(=O)Nc2nc3nccc(-c4cccc(OCc5ccccc5)c4)n3n2)c1 [Example 199],280
4,COc1cccc([C@H](C)NC(=O)Nc2nc3nccc(-c4cccc(O)c4)n3n2)c1 [Example 200],70
5,COc1cccc([C@H](C)NC(=O)Nc2nc3nccc(-c4cccc(OCc5ccccn5)c4)n3n2)c1 [Example 201],160
6,COc1cccc([C@H](C)NC(=O)Nc2nc3nccc(-c4cccc(OCc5cccnc5)c4)n3n2)c1 [Example 202],60
7,COc1cccc([C@H](C)NC(=O)Nc2nc3nccc(-c4cccc(OCc5ccncc5)c4)n3n2)c1 [Example 203],190
8,COc1cccc([C@H](C)NC(=O)Nc2nc3nccc(-c4cccc(OCCN5CCOCC5)c4)n3n2)c1.Cl [Example 204],70
9,COc1cccc([C@H](C)NC(=O)Nc2nc3nccc(-c4cccc(OCCN(C)C)c4)n3n2)c1 [Example 205],190
10,COc1cccc([C@H](C)NC(=O)Nc2nc3nccc(-c4cccc(OCCC5OCCCO5)c4)n3n2)c1 [Example 207],60
11,COc1cccc([C@H](C)NC(=O)Nc2nc3nccc(-c4cccc(OCCc5ccccn5)c4)n3n2)c1 [Example 208],180
12,COc1cccc([C@H](C)NC(=O)Nc2nc3nccc(-c4cccc(OCCc5ccncc5)c4)n3n2)c1 [Example 209],40
13,COc1cccc([C@H](C)NC(=O)Nc2nc3nccc(-c4cccc(OCCCc5cccnc5)c4)n3n2)c1 [Example 210],130
14,COc1cccc([C@H](C)NC(=O)Nc2nc3nccc(-c4cccc(OCCCc5ccncc5)c4)n3n2)c1 [Example 211],60
15,COCOc1cccc(-c2ccnc3nc(NC(=O)N[C@@H](C)c4cccc(OC)c4)nn23)c1 [Example 212],180
16,COCCOCOc1cccc(-c2ccnc3nc(NC(=O)N[C@@H](C)c4cccc(OC)c4)nn23)c1 [Example 213],150
17,COc1ccc(-c2ccnc3nc(NC(=O)NCc4ccccc4OC)nn23)cc1 [Example 214],420
18,COc1ccc(-c2ccnc3nc(NC(=O)NCc4ccc5c(c4)OCO5)nn23)cc1 [Example 215],150
19,COc1ccc(-c2ccnc3nc(NC(=O)N[C@@H](C)C(C)C)nn23)cc1 [Example 216],160
20,COc1ccc(-c2ccnc3nc(NC(=O)N[C@@H](C)C(C)(C)C)nn23)cc1 [Example 217],320
21,COc1ccc(-c2ccnc3nc(NC(=O)N[C@@H](C)C4CCCCC4)nn23)cc1 [Example 218],180
22,COc1ccc(-c2ccnc3nc(NC(=O)N[C@@H](C)C(C)=O)nn23)cc1 [Example 220],720
23,COc1cccc([C@H](C)NC(=O)Nc2nc3nccc(-c4cccc(OCCCN(C)C)c4)n3n2)c1 [Example 221],120
24,"COc1cccc([C@H](C)NC(=O)Nc2nc3nccc(-c4ccc(OCc5ccccc5)cc4)n3n2)c1 [Example 222, (S)-1-[7-(4-benzyloxyphenyl)-[1,2,4]triazolo[1,5-a]pyrimidin-2-yl]-3-[1-(3-methoxyphenyl)ethyl]urea]",100
25,"COc1cccc([C@H](C)NC(=O)Nc2nc3nccc(-c4ccc(O)cc4)n3n2)c1 [Example 223, (S)-1-[7-(4-hydroxyphenyl)-[1,2,4]triazolo[1,5-a]pyrimidin-2-yl]-3-[1-(3-methoxyphenyl)ethyl]urea]",14

row,SMILES,EC20 (concentration necessary for suppressing 20% of the expression level of MHC class I molecules) [nM]
1,COc1cccc([C@H](C)NC(=O)Nc2nc3nccc(-c4ccc(OCC5CCCO5)cc4)n3n2)c1 (stereo partly shown) [Example 224],90
2,COc1cccc([C@H](C)NC(=O)Nc2nc3nccc(-c4ccc(OCCC5OCCCO5)cc4)n3n2)c1 [Example 225],50
3,COCOc1ccc(-c2ccnc3nc(NC(=O)N[C@@H](C)c4cccc(OC)c4)nn23)cc1 [Example 226],50
4,COCCOCOc1ccc(-c2ccnc3nc(NC(=O)N[C@@H](C)c4cccc(OC)c4)nn23)cc1 [Example 227],70
5,COc1cccc([C@H](C)NC(=O)Nc2nc3nccc(-c4ccc(OCC(=O)O)cc4)n3n2)c1 [Example 229],690
6,COc1cccc([C@H](C)NC(=O)Nc2nc3nccc(-c4ccc(N(C)C)cc4)n3n2)c1 [Example 232],40
7,COCCCC[C@H](C)NC(=O)Nc1nc2nccc(-c3ccc(OC)cc3)n2n1 [Example 233],40
8,CC[C@H](C)NC(=O)Nc1nc2nccc(-c3ccc(OC)cc3)n2n1 [Example 234],220
9,COC[C@H](C)NC(=O)Nc1nc2nccc(-c3ccc(OC)cc3)n2n1 [Example 237],250
10,COCCOCCOCCOc1ccc(-c2ccnc3nc(NC(=O)N[C@@H](C)c4cccc(OC)c4)nn23)cc1 [Example 238],15
11,COCCOCCOCCOc1cccc(-c2ccnc3nc(NC(=O)N[C@@H](C)c4cccc(OC)c4)nn23)c1 [Example 239],110
12,"COCCOc1ccc(-c2ccnc3nc(NC(=O)N[C@@H](C)c4cccc(OC)c4)nn23)cc1 [Example 244, (S)-1-{7-[4-(2-methoxyethoxy)phenyl]-[1,2,4]triazolo[1,5-a]pyrimidin-2-yl}-3-[1-(3-methoxyphenyl)ethyl]urea]",19
13,"CC(C)CCC[C@H](C)NC(=O)Nc1nc2nccc(-c3ccc(OCc4ccccc4)cc3)n2n1 [Example 245, (S)-1-[7-(4-benzyloxyphenyl)-[1,2,4]triazolo[1,5-a]pyrimidin-2-yl]-3-(1,5-dmethylhexyl)urea]",180
14,CC(C)CCC[C@H](C)NC(=O)Nc1nc2nccc(-c3cccs3)n2n1 [Example 246],50
15,COc1ccc(-c2ccnc3nc(NC(=O)NCc4cc(OC)c(OC)c(OC)c4)nn23)cc1 [Example 247],37
16,COc1cccc([C@H](C)NC(=O)Nc2nc3nccc(-c4ccc(OCCCN5CCOCC5)cc4)n3n2)c1 [Example 248],14
17,COc1cccc([C@H](C)NC(=O)Nc2nc3nccc(-c4cccc(OCCCN5CCOCC5)c4)n3n2)c1 [Example 249],70
18,COCCOc1ccc(-c2ccnc3nc(NC(=O)N[C@@H](C)c4cccc(OC)c4)nn23)cc1OCCOC [Example 251],60
19,COCCOc1ccc(-c2ccnc3nc(NC(=O)N[C@@H](C)CCCC(C)C)nn23)cc1OCCOC [Example 252],50
20,COc1cccc([C@H](C)NC(=O)Nc2nc3nccc(-c4cccc(OCC(=O)N5CCOCC5)c4)n3n2)c1 [Example 253],270
21,CC(C)CCC[C@H](C)NC(=O)Nc1nc2nccc(-c3ccc(OCc4ccccc4)cc3)n2n1 [Example 254],230
22,"CC(C)CCC[C@H](C)NC(=O)Nc1nc2nccc(-c3ccc(O)cc3)n2n1 [Example 255, (S)-1-(1,5-dimethylhexyl)-3-[7-(4-hydroxyphenyl)-[1,2,4]triazolo[1,5-a]pyrimidin-2-yl]urea]",5.6
23,CC(C)CCC[C@H](C)NC(=O)Nc1nc2nccc(-c3cccc(OCc4ccccc4)c3)n2n1 [Example 256],550
24,CC(C)CCC[C@H](C)NC(=O)Nc1nc2nccc(-c3cccc(O)c3)n2n1 [Example 257],30

# — patent publication US7598244B2, “[1,2,4]triazolo[1,5,a]pyrimidin-2-ylurea derivative and use thereof” (Nippon Kayaku Kabushiki Kaisha, priority 2003, dated 2009)
